Measured values from ChEMBL document CHEMBL5604063, “ASAP - DENV-2 NS2B-NS3 protease fluorescence dose response” (2024).
Where “and” joins values, the source holds several entries; their conditions need not be identical. Equal values may be shown once.

Experiments:
[1] = biological target: T1, Genome polyprotein (dengue virus type 2, UniProt P29990); assay type: functional, Thailand/16681/1984
[2] = biological target: T1, Genome polyprotein; assay type: functional, Thailand/16681/1984; remark: listed apart in the source

T1 sequence (P29990 1346-1475 limits assumed): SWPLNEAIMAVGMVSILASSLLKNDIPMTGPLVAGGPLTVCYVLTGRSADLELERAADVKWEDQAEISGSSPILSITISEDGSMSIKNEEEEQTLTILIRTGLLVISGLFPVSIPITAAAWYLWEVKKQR
T1 sequence (P29990 1476-2093 limits assumed): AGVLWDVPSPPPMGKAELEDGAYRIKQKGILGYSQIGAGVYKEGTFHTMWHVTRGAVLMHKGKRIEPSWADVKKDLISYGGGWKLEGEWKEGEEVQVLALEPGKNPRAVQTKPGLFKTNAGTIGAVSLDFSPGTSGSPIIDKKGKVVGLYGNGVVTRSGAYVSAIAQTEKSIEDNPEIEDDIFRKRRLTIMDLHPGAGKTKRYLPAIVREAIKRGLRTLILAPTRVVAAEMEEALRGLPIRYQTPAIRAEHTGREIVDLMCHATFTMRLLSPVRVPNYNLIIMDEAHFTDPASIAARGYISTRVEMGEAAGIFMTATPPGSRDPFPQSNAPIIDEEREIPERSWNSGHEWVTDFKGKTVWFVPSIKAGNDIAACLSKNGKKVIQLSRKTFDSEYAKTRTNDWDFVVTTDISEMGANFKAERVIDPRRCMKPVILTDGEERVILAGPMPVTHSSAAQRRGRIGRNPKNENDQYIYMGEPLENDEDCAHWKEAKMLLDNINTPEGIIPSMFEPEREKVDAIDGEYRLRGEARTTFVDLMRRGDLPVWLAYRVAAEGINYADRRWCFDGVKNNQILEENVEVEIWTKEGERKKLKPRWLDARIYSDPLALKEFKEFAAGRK

Compound | IC50 [1] | IC50 [2]
O=C(Nc1ccc(C2CNC2)cc1)c1cc(Cl)cc2[nH]ncc12 | > 99.5 µM | > 100 µM
C[C@H]1C[C@@H](C(=O)Nc2cccc(CN)c2)CCO1 | > 99.5 µM | > 100 µM
Cc1c(C(=O)Nc2ccc(CN)cc2)cc(C2CC2)n1C | > 99.5 µM | > 100 µM
CC(C)S(=O)(=O)N1CCC([C@@H](NC(=O)OCc2ccccc2)C(=O)Nc2cccc(CN)c2)CC1 | > 99.5 µM | > 100 µM
O=C(NCC(F)F)[C@H](Nc1ccc2c(c1)CNC2)c1cc(F)cc2[nH]ncc12 | > 99.5 µM | 78.2 µM
O=C1Cc2c(cccc2C(=O)N[C@H]2COc3cc(Br)cnc32)N1 | > 99.5 µM | > 100 µM
O=C(Nc1cc(Cl)cc([C@H]2C[C@@H]2c2cccc(C3CCNCC3)c2)c1)OCc1ccccc1 | 6.78 µM and 6.9 µM | 54.1 µM and 34.5 µM
CC(C)(C#N)CS(=O)(=O)N1CCC([C@H](NC(=O)OCc2ccccc2)C(=O)Nc2cccc(CN)c2)CC1 | > 99.5 µM | > 100 µM
O=C(Nc1ccc2c(c1)CNC2)c1cc(Cl)cc2c1CCC2 | > 99.5 µM | > 100 µM
NS(=O)(=O)c1cc(Cl)cc(C(=O)Nc2ccc3c(c2)CNC3)c1 | > 99.5 µM | > 100 µM
CSc1cc2c(cc1NC(=O)c1cc(F)cc3[nH]ncc13)CNC2 | 71.1 µM | > 100 µM
CCN1CC[C@H](COc2cccc([C@H](NC(=O)OCc3ccccc3)C(=O)Nc3cccc(CN)c3)c2)C1 | > 99.5 µM | > 100 µM
O=C(Nc1cnc2c(c1)CNC2)c1cc(F)cc2[nH]ncc12 | 36.5 µM | 46.6 µM and 49.7 µM
Cn1nc2c(c1NC(=O)c1cc(Cl)cc(NC(=O)OCc3ccccc3)c1)CNCC2 | 60.7 µM | > 100 µM
O=C(N[C@H]1[C@H]2CCCCC[C@H]2[C@H]1C(=O)Nc1cccc(-n2nn[nH]c2=O)c1)OCc1ccccc1 | 27.1 µM | 37.9 µM and 54.6 µM
O=C(Nc1ccc2c(c1)CNC2)c1cc(F)cc2[nH]ncc12 | 59.5 µM | 37.8 µM and 24.3 µM
NCc1cccc(NC(=O)[C@H](NC(=O)OCc2ccccc2)C2CCN(C(=O)c3ccco3)CC2)c1 | > 99.5 µM | > 100 µM

Compound | IC50 [1] | IC50 [2]
O=C(Nc1ccc2c(c1)CNC2)c1ccc2nc(O)sc2c1 | > 99.5 µM | > 100 µM
O=C1Cc2c(cccc2C(=O)Nc2ccc(-c3cccnc3)cn2)N1 | > 99.5 µM | > 100 µM
N#C[C@H](c1cc(Cl)cc(C2CC2)c1)N1c2cnccc2C[C@H]1C(=O)O | > 99.5 µM | > 100 µM
Cn1nc(C(=O)Nc2cccc(CN)c2)c2c1CCS(=O)(=O)C2 | > 99.5 µM | > 100 µM
O=C(Nc1cc(Cl)cc(C(=O)NCCc2nnn[nH]2)c1)OCc1ccccc1 | > 99.5 µM | > 100 µM
O=C(O)c1cc2cc(-c3cc(Cl)cn4ncnc34)ccc2[nH]1 | > 99.5 µM | > 100 µM
CC(C)n1cc(C(=O)Nc2cc(-c3cccnc3)ccn2)cn1 | > 99.5 µM | > 100 µM
O=C(Nc1ccc2c(c1)[C@H]1CC[C@H]2N1)c1cc(Cl)cc2[nH]ncc12 | > 99.5 µM | > 100 µM
O=C(Nc1ccc2c(c1)CNC2)c1cc(F)cc(-c2cnc3n2CCC3)c1 | > 99.5 µM | > 100 µM
COC(=O)c1cc2c(cc1NC(=O)c1cc(F)cc3[nH]ncc13)CNC2 | > 99.5 µM | > 100 µM
N[C@H]1CCN(c2ccc(NC(=O)c3cc(Cl)cc(NC(=O)OCc4ccccc4)c3)cc2)C1 | 35.4 µM | > 100 µM
CC(C)n1nncc1-c1cc(F)cc(C(=O)Nc2ccc3c(c2)CNC3)c1 | 89 µM | > 100 µM
NC[C@H]1C[C@@H]1NC(=O)c1cc(Cl)cc(NC(=O)OCc2ccccc2)c1 | > 99.5 µM | > 100 µM
O=C(Nc1ccc2c(c1)CNC2)c1cc(Cl)nc2[nH]ccc12 | > 99.5 µM | > 100 µM
O=C1COc2c(cccc2C(=O)Nc2ccc3c(c2)CNC3)N1 | > 99.5 µM | > 100 µM
O=C(Nc1cc2c(cn1)CNC2)c1cc(F)cc2[nH]ncc12 | > 99.5 µM | > 100 µM
